From patent EP4755875A1, “PHTHALAZINONE COMPOUND AND PREPARATION METHOD THEREFOR, PHARMACEUTICAL COMPOSITION, AND USE” (Beijing Wehand-Bio Pharmaceutical Co., Ltd, priority 2023, dated 2025) come the findings set out here.

Structures are written as SMILES.

Test [1] concerns PC-12 cells. Kind of test: In vitro neuroprotective activity, glutamate injury model (CCK-8 viability). The format is cell-based. As to conditions: Rattus norvegicus; compound 10 µM; PC-12 cells injured with glutamate (8 mM) for 2 h; 24-hour incubation; relative to model group; read-out: Improved Viability (%). On the procedure:
(§1) The in vitro neuroprotective models for evaluating the test compound were hydrogen peroxide injury and glutamate injury models. The PC-12 cells were seeded in a 96-well plate at a density of 1.5 × 10^4 cells/mL, 100 µL per well. The experiment included a blank group, a model group, and drug treatment groups. The hydrogen peroxide injury and glutamate injury models were stimulated for 2 h with a final concentration of 120 µM hydrogen peroxide or 8 mM glutamate, respectively. Subsequently, the cells in the blank group were cultured in complete medium, whereas the cells in the drug treatment groups were cultured by adding 10 µM test compound. After 24-hour incubation for all groups, 10 µL of CCK-8 was added to each well. 60 min later, the absorbance at 490 nm was measured using a microplate reader. The viability was calculated. Improved Viability = (Viability in Drug Treatment Group - Viability in Model Group)/(Viability in Model Group). Table 1 Protective Effects of Phthalazinone Compounds on Nerve Cell Injury Induced by Hydrogen Peroxide (120 µM)

The test system of test [2] is PC-12 cells. Kind of test: In vitro neuroprotective activity, hydrogen peroxide injury model (CCK-8 viability). The format is cell-based. Particulars: Rattus norvegicus; compound 10 µM; PC-12 cells injured with hydrogen peroxide (120 µM) for 2 h; 24-hour incubation; relative to model group; read-out: Improved Viability (%). On the procedure: as §1
Test [3] concerns rats with ischemic stroke. The experiment in a line: In vivo anti-ischemic stroke activity, middle cerebral artery occlusion model. The arrangement: species or system SD rats.

With `CCCCc1nn(CC)c(=O)c2c(OC)cccc12` [Compound 2, 2-Ethyl-4-butyl-8-methoxy-phthalazin-1(2H)-one], the activation at 10 µM in test [1] is 0.04 ± 1.05%; in test [2], 35.8 ± 3.55%.
On to `CC1=NN(c2ccccc2)C(=O)C1` [Edaravone, reference compound], for which the activation at 10 µM in test [1] stood at 3.14 ± 0.85%; in test [2] it was 11.3 ± 2.15%.
Take `CCCCc1nn(CC2CC2)c(=O)c2c(OC)cccc12` [Compound 4, 2-(Cyclopropylmethyl)-4-butyl-8-methoxy-phthalazin-1(2H)-one]: the results for the activation at 10 µM in test [1] and in test [2] were 9.75 ± 3.22% and 23.4 ± 1.83%, respectively.
For `CCCCc1nn(CC2CCCCC2)c(=O)c2c(OCCC)cccc12` [Compound 14, 2-(Cyclohexylmethyl)-4-butyl-8-propoxy-phthalazin-1(2H)-one], in that order: 3.16 ± 3.54% and 6.68 ± 3.51%.
With `CCCCc1nn(CC)c(=O)c2c(OCC3CCCCC3)cccc12` [Compound 7, 2-Ethyl-4-butyl-8-(cyclohexylmethoxy)-phthalazin-1(2H)-one], the activation at 10 µM in test [2] was 0.81 ± 0.37%.
In the case of `CCCCc1nn(CCC)c(=O)c2c(OCCC)cccc12` [Compound 12, 2-Propyl-4-butyl-8-propoxy-phthalazin-1(2H)-one], the activation at 10 µM in test [1] is 5.11 ± 2.33%; in test [2] it was 12.9 ± 6.03%.
On to `CCCCc1nn(Cc2ccncc2)c(=O)c2c(OCCC)cccc12` [Compound 10, 2-(Pyridin-4-methylene)-4-butyl-8-propoxy-phthalazin-1(2H)-one], for which the activation at 10 µM in test [2] was found to be 1.93 ± 2.37%.
As to `CCCCc1nn(CC2CCCCC2)c(=O)c2c(OC)cccc12` [Compound 5], the activation at 10 µM was 14 ± 6.21% in test [1] and 61.9 ± 6.53% in test [2].
For `CCCCc1n[nH]c(=O)c2c(OCCC)cccc12` [Compound 9, 4-Butyl-8-propoxy-phthalazin-1(2H)-one], in that order: 7.48 ± 3.07% and 60.2 ± 5.87%.
As to `CCCCc1nn(CC2CC2)c(=O)c2c(OCCC)cccc12` [Compound 13, 2-(Cyclopropylmethyl)-4-butyl-8-propoxy-phthalazin-1(2H)-one], the activation at 10 µM came to 47.8 ± 8.14% in test [1] and 3.14 ± 1.45% in test [2].
In the case of `CCCCc1nn(CC)c(=O)c2c(OCc3ccc4ccccc4c3)cccc12` [Compound 20, 2-Ethyl-4-butyl-8-(naphthalene-2-methoxy)-phthalazin-1(2H)-one], the activation at 10 µM was determined as 8.77 ± 3.01% in test [1] and 34 ± 3.92% in test [2].
As for `CCCCc1nn(Cc2ccc(F)cc2)c(=O)c2c(OCCC)cccc12` [Compound 11, 2-(4-Fluorobenzyl)-4-butyl-8-propoxy-phthalazin-1(2H)-one], the activation at 10 µM is 32.7 ± 6.21% in test [1] and 96.8 ± 8.64% in test [2].
As for `CCCCc1nn(Cc2ccc3ccccc3c2)c(=O)c2c(OCCC)cccc12` [Compound 15, 2-(Naphthylmethyl)-4-butyl-8-propoxy-phthalazin-1(2H)-one], the activation at 10 µM in test [2] came out at 1.59 ± 1.13%.
On to `CCCCc1nn(Cc2ccccc2)c(=O)c2c(OCC3CCCCC3)cccc12` [Compound 8, 2-Benzyl-4-butyl-8-(cyclohexylmethoxy)-phthalazin-1(2H)-one], for which the activation at 10 µM in test [1] worked out at 7.99 ± 2.98%; in test [2], 12.1 ± 3.25%.
For the compound `CCCCc1nn(Cc2ccc(F)cc2)c(=O)c2c(OCC3CC3)cccc12` [Compound 17, 2-(4-Fluorobenzyl)-4-butyl-8-(cyclopropylmethoxy)-phthalazin-1(2H)-one], the activation at 10 µM in test [1] is 12.2 ± 2.57%; in test [2] it was 33 ± 2.37%. The “survival rate of rats with ischemia-reperfusion injury” value in test [3] (intragastric 10, 30 and 60 mg/kg, once daily for 7 days, FIG. 1) is listed as “effectively increase”. Moreover, in test [3] (intragastric 10, 30 and 60 mg/kg, once daily for 7 days, FIG. 2), the “body weight of rats” value was “reverse the decrease trend”. Further, the “volume of cerebral infarction” value in test [3] (intragastric 10, 30 and 60 mg/kg, once daily for 7 days, TTC staining, FIG. 3) is “reduce the volume of cerebral infarction in a dose-dependent manner”. In addition, the “effects compared with positive control drug butylphthalide (200 mg/kg)” value in test [3] (survival rate, body weight, infarction volume, Compound 17 at 10, 30, 60 mg/kg by gavage) was “superior”.
